# System: wildtype (WT) human fibroblast cell lines
# Assay: Transcriptome-wide splicing by RNA sequencing (RNASeq), exon triplet PSI change;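 on Effect: six WT fibroblast lines treated seven days versus DMSO vehicle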;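 on T-PSI: T-PSI is average treated PSI after seven days of treatment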
# Assay type: cell-based
# Design: key to Effect: Exclusion; Inclusion; Unchanged
# Text: FIG. 2A provides a representation of an exon triplet. Exon U is upstream of Exon X, which is upstream of Exon D. R1, R2 and R3 represent RNA sequencing (RNASeq) reads spanning the regions between two adjacent exons. UI1, I1X, XI2 and I2D are four regions flanking the four splice sites of the exon-triplet. Each flanking region consists of 25 exonic base pairs and 75 intronic base pairs.
# FIG. 2B provides a volcano plot showing the ψ (PSI: Percent Spliced-In) changes in splicing after treatment with Compound (I). Each dot represents one of the 161,097 expressed exon triplets in human fibroblasts. The x axis represents the ψ changes after treatment and the y axis represents the False Discovery Rate (FDR) (log 10 transformed). […] The horizontal dashed line indicates an FDR of 0.1. The dots on the right side of the right vertical dashed line and above the horizontal dashed line represent the exon-triplets with an increase for Exon X inclusion (Δψ≥0.1 and FDR<0.1) while the dots on left side of the left vertical dashed line and above the horizontal dashed line represent an increase for Exon X exclusion (Δψ≤−0.1 and FDR<0.1). Black dots in-between the two vertical dashed lines represent exon-triplets unchanged from the treatment.
# In some aspects, analysis is performed on data derived from the assay to measure the magnitude of splicing to determine the amount of exons spliced into an mRNA transcript that is produced in the presence of Compound (I) relative to the amount in the absence of Compound (I) or presence of a negative control. In a preferred aspect, the method utilized is calculation of change in Percent Spliced In (ΔPSI). […] The ΔPSI value is derived from the formula: […]
# The values for “a” and “b” represent the number of reads supporting the probability for potential inclusion or exclusion of an exon in an RNA transcript. The “a” value is derived from the number of reads within an exon triplet covering, in 5′ to 3′ order: the last few bases (>1 nucleotide) of an upstream exon operably linked to the first few bases (>1 nucleotide) of a middle exon. The “b” value is derived from the number of reads within an exon triplet covering, in 5′ to 3′ order: the last few bases (>1 nucleotide) of the middle exon operably linked to the first few bases (>1 nucleotide) of a downstream exon. The number of reads will indicate whether the splice junction of a middle exon has been identified as potentially having a CNN Motif(s) by the CNN Model described herein, wherein the inclusion or exclusion of the middle exon may be modulated in the presence of Compound (I) to produce one or more mature RNA isoforms from the gene transcript. The value for “c” represents the number of reads supporting the exclusion of the middle exon.
# The effect on splicing modulation and corresponding splice differences toward exon inclusion or exclusion was determined by counting the RNASeq reads covering two splice junctions of exon triplets (three consecutive exons: Exon U, Exon X, Exon D) and the corresponding intervening introns, then comparing the change in Percent Spliced In (ΔPSI or Δψ) of the middle exon (Exon X) after treatment (as shown in FIG. 2A)^52,53. 934 exon triplets were identified showing differential middle exon inclusion or exclusion in response to Compound (I) treatment. Of these, 254 were exon inclusion events (Δψ≥0.1 and FDR<0.1) and 680 were exon exclusion events (Δψ≤−0.1 and FDR<0.1) (as shown in FIG. 2B). […] The splicing results were evaluated by RT-PCR in independent replicate experiments, confirming all the calculated Δψ values. […]
# [1] = NUTM2A-AS1 Exon 89067714-89067817
# [2] = ORMDL1 Exon 190647740-190647849
# [3] = OSBPL8 Exon 76853639-76853675, Intron1 76844760-76853638
# [4] = OSBPL8 Exon 76853639-76853675, Intron1 76844769-76853638
# [5] = OSER1-AS1 Exon 42846007-42846322
# [6] = PACRGL Exon 20711306-20711396, Intron1 20706438-20711305
# [7] = PACRGL Exon 20711306-20711396, Intron1 20709494-20711305
structure (smiles),measurement,setting,value
"Clc1nc(NCc2ccncc2)c2cc[nH]c2n1 [Compound (I), 2-chloro-N-(pyridin-4-ylmethyl)-7H-pyrrolo[2,3-d]pyrimidin-4-amine]",T-PSI,NUTF2 Exon 67881181-67881359,0.104
same,ΔPSI,NUTF2 Exon 67881181-67881359,−0.003
same,Effect,[1],Exc
same,T-PSI,[1],0.100
same,ΔPSI,[1],−0.120
same,Effect,OARD1 Exon 41036580-41036692,Exc
same,T-PSI,OARD1 Exon 41036580-41036692,0.563
same,ΔPSI,OARD1 Exon 41036580-41036692,−0.267
same,Effect,OCRL Exon 128718321-128718344,Inc
same,T-PSI,OCRL Exon 128718321-128718344,0.364
same,ΔPSI,OCRL Exon 128718321-128718344,0.260
same,Effect,ODF2 Exon 131231462-131231632,Exc
same,T-PSI,ODF2 Exon 131231462-131231632,0.872
same,ΔPSI,ODF2 Exon 131231462-131231632,−0.102
same,Effect,ODF2L Exon 86822127-86822285,Exc
same,T-PSI,ODF2L Exon 86822127-86822285,0.514
same,ΔPSI,ODF2L Exon 86822127-86822285,−0.272
same,Effect,OFD1 Exon 13781864-13781974,Inc
same,T-PSI,OFD1 Exon 13781864-13781974,0.981
same,ΔPSI,OFD1 Exon 13781864-13781974,0.131
same,Effect,OPN3 Exon 241767722-241767881,Unc
same,T-PSI,OPN3 Exon 241767722-241767881,0.437
same,ΔPSI,OPN3 Exon 241767722-241767881,−0.004
same,Effect,OPTN Exon 13150138-13150289,Inc
same,T-PSI,OPTN Exon 13150138-13150289,0.387
same,ΔPSI,OPTN Exon 13150138-13150289,0.176
same,Effect,OPTN Exon 13150962-13151015,Exc
same,T-PSI,OPTN Exon 13150962-13151015,0.121
same,ΔPSI,OPTN Exon 13150962-13151015,−0.220
same,Effect,[2],Exc
same,T-PSI,[2],0.407
same,ΔPSI,[2],−0.295
same,Effect,OS9 Exon 58113882-58114046,Exc
same,T-PSI,OS9 Exon 58113882-58114046,0.344
same,ΔPSI,OS9 Exon 58113882-58114046,−0.181
same,Effect,[3],Inc
same,T-PSI,[3],0.296
same,ΔPSI,[3],0.200
same,Effect,[4],Inc
same,T-PSI,[4],0.269
same,ΔPSI,[4],0.191
same,Effect,[5],Unc
same,T-PSI,[5],0.153
same,ΔPSI,[5],0.000
same,Effect,P4HA2 Exon 131562390-131562914,Unc
same,T-PSI,P4HA2 Exon 131562390-131562914,0.155
same,ΔPSI,P4HA2 Exon 131562390-131562914,−0.007
same,Effect,P4HA2 Exon 131562625-131562914,Unc
same,T-PSI,P4HA2 Exon 131562625-131562914,0.160
same,ΔPSI,P4HA2 Exon 131562625-131562914,−0.007
same,Effect,PACRGL Exon 20709426-20709493,Exc
same,T-PSI,PACRGL Exon 20709426-20709493,0.666
same,ΔPSI,PACRGL Exon 20709426-20709493,−0.179
same,Effect,[6],Exc
same,T-PSI,[6],0.462
same,ΔPSI,[6],−0.305
same,Effect,[7],Exc
same,T-PSI,[7],0.563
same,ΔPSI,[7],−0.242
same,Effect,PACRGL Exon 20726431-20726511,Exc
same,T-PSI,PACRGL Exon 20726431-20726511,0.095
same,ΔPSI,PACRGL Exon 20726431-20726511,−0.120
same,Effect,PAM Exon 102309820-102310140,Exc
same,T-PSI,PAM Exon 102309820-102310140,0.478
same,ΔPSI,PAM Exon 102309820-102310140,−0.123
same,Effect,PARD3 Exon 34625127-34625171,Unc
same,T-PSI,PARD3 Exon 34625127-34625171,0.805
same,ΔPSI,PARD3 Exon 34625127-34625171,−0.003
same,Effect,PARD3 Exon 34739245-34739376,Exc
same,T-PSI,PARD3 Exon 34739245-34739376,0.584
same,ΔPSI,PARD3 Exon 34739245-34739376,−0.165
same,Effect,PARL Exon 183551512-183551613,Exc
same,T-PSI,PARL Exon 183551512-183551613,0.819
same,ΔPSI,PARL Exon 183551512-183551613,−0.118
same,Effect,PARP6 Exon 72543186-72543295,Inc
same,T-PSI,PARP6 Exon 72543186-72543295,0.902
